These results are taken from US10660933B2, “Compositions and methods for inhibition of bacterial infections in human endocervix” (priority 2015, dated 2020).

In assay [1] the test system is Neisseria gonorrhoeae MS11. Nature of the assay: Ng adherence, invasion, and transmigration assays on polarized epithelial cells. In kind it is cell-based. Particulars: for transmigration of MS11ΔOpa across the polarized T84 monolayer / Ng invasion into polarized T84 cells (gentamicin resistance): 6 h; for transmigration of MS11ΔOpa across the polarized T84 monolayer: ML-7 10 μM, PIK 100 μM, 2APB 10 μM, Y27632 10 μM; for Ng adherence to polarized T84 cells / Ng invasion into polarized T84 cells (gentamicin resistance): MS11ΔOpa, with inhibitors; for Ng adherence to polarized T84 cells: 3 h. How it is done: Ng adherence, invasion, and transmigration assays. The assays were performed as previously described. Briefly, polarized epithelial cells that were pretreated with or without the inhibitors for 1 h were incubated apically with Ng at 37° C. for 3 h for adherence and 6 h for invasion and transmigration assays with or without the inhibitors. Ng in the basolateral media were cultured and counted as transmigrated bacteria. Cells were washed and lysed to count adherent Ng. Cells were treated with gentamicin, washed, and lysed to count bacteria that were resistant to gentamicin treatment as invaded Ng.

The test system of another assay is cytoplasmic Ca2+. The assay is described as follows: Calcium imaging of Ng-inoculated polarized epithelial cells (FluoForte, Fluo-4). Conditions: MS11Opa+ and MS11ΔOpa-inoculated polarized epithelial cells, 4 h; 2APB 10 μM, BAPTA 50 μM. In kind it is cell-based, human. An excerpt: Ng inoculation induces Ca^2+-dependent redistribution of active NMII in polarized epithelial cells. A major upstream signaling molecule of MLCK is calmodulin that is activated by Ca^2+. To investigate if Ca^2+ is involved in Ng induced redistribution of active NMII, we determined if Ng inoculation would induce Ca^2+ flux in polarized epithelial cells. We used two Ca^2+ indicators, FluoForte (FIGS. 7A and 7B) and Fluo-4 (FIG. 11) to determine the cytoplasmic Ca^2+ level. Polarized T84 (FIGS. 7A and 7B, and FIG. 11A and FIG. 11B) and HEC-1-B (FIG. 11C and FIG. 11D) were incubated apically with MS11Opa+ or MS11ΔOpa for 4 h. The cells were then loaded with the fluorescent Ca^2+ indicator, and the cell membrane marked by the membrane dye CellMask. Cells were imaged using 3D-CFM (FIG. 7A, and FIGS. 11A and 11C). The mean fluorescence intensity (MFI) of the Ca^2+ dyes in individual cells was measured to estimate the cytoplasmic level of Ca^2+ (FIG. 7B, and FIGS. 11B and 11D). […]
Calcium imaging. […] To quantify the intracellular Ca^2+ level, the cytoplasmic region of individual cells was manually selected based on the CellMask staining in randomly acquired confocal images, and the mean fluorescent intensity (MFI) of Fluoforte and Fluo-4 in the cytoplasmic region was measured using the NIH ImageJ software.

The test system of assay [2] is human endocervical tissue explants. The assay is described as follows: Ng-induced epithelial exfoliation of human endocervical tissue explants (3D-CFM). In kind it is cell-based. Conditions: MS11ΔOpa, 24 h; ML-7 10 μM, PIK 100 μM. How it is done:
Human endocervical tissue explants. The tissue explants were cultured as previously described. Endocervical tissues were obtained from patients undergoing voluntary hysterectomies and received within 24 h post-surgery. Samples were cut into ˜2.5 cm (L)×0.6 cm (W)×0.3 cm (H) pieces, incubated in CMRL-1066 (GIBCO, Gaithersburg, Md.) plus antibiotics for 24 h, and then switched to antibiotic-free media for 24 h.
(§1) Immunofluorescence analysis of human endocervical tissue explants. […] The tissue was fixed, embedded in gelatin, cryopreserved, sectioned crossing the apical and basolateral surfaces of the epithelium, stained for ZO1 (BD Bioscience), pMLC (Cell Signaling Technology, Beverly, Mass.), and Ng (51) by specific antibodies, and nuclei by DAPI (Life Technologies, Carlsbad, Calif.), and analyzed using CFM (Zeiss LSM 710, Carl Zeiss Microscopy LLC, Oberkochen, Germany). […]
To quantify epithelial exfoliation, the number of Ng associated cells localized on the top of the epithelial monolayer (exfoliated) and the total number of Ng associated epithelial cells was counted by visual inspection in each randomly acquired image, to determine the percentage of exfoliated cells. […] To quantify the redistribution of pMLC, the fluorescence intensity ratios (FIR) of pMLC staining at the apical to lateral in individual epithelial cells were determined using average FI as previously described.

The test system of assay [3] is phosphorylated myosin light chain (pMLC). Nature of the assay: pMLC redistribution in Ng-inoculated human endocervical tissue explants. Particulars: MS11ΔOpa-inoculated endocervical tissue explants, 24 h. Type of assay: cell-based. As to the method:
To explore the possibility of that Ng induced NMII redistribution occurs in vivo, we incubated human endocervical tissue explants with MS11ΔOpa for 24 h. Cryo-sections of the endocervical tissue were stained for pMLC, Ng and nuclei. In addition to its apical junction localization, pMLC was concentrated at the basal surface of the endocervical epithelial cells contacting with the basal membrane (FIG. 6A, upper panels). When incubated with MS11ΔOpa, there was a redistribution of pMLC from the basal to apical surface, resulting in a significant higher apical:lateral FIR in Ng inoculated tissue explants than that in no Ng control (FIG. 6), similar to what we observed in polarized T84 (FIGS. 5A and 5B) and HEC-1-B cells (FIG. 10). Furthermore, pMLC at the apical surface of the endocervical epithelial cells also concentrated at Ng adherent sites (FIG. 6A, second row, white arrows), but not at the membrane of cells neighboring exfoliating cells (FIG. 6A, second row, orange arrows). These observations confirm that Ng increase the relative amount of activated NMII at the apical surface of the endocervical epithelial cells in human tissue explants. […]
as §1
To quantify epithelial exfoliation, the number of Ng associated cells localized on the top of the epithelial monolayer (exfoliated) and the total number of Ng associated epithelial cells was counted by visual inspection in each randomly acquired image, to determine the percentage of exfoliated cells. To estimate the level of Ng penetration into the subepithelium, the number of non-exfoliated epithelial cells (in clearly visible epithelial monolayers) with basal Ng staining and the total number of Ng associated epithelial cells were visually counted to calculate the percentage of infected epithelial cells with Ng penetration into the basolateral side. To evaluate the disruption of the apical junction, the number of Ng associated epithelial cells that lost continuously apical staining of the junctional protein ZO1 and the total number of Ng associated epithelial cells were visually counted to calculate the percentage of Ng associated epithelial cells with apical junction disassembly. […]

Turning to `NCCOB(c1ccccc1)c1ccccc1` [2APB], in assay [1], the “transmigration of MS11ΔOpa across the polarized T84 monolayer” value was “significantly reduced the transmigration”, the “Ng adherence to polarized T84 cells” value is “none of these inhibitors had any significant effect” and the “Ng invasion into polarized T84 cells (gentamicin resistance)” value is given as “none of these inhibitors had any significant effect”. Further, in the assay on cytoplasmic Ca2+, the “MFI of the Ca2+ indicators (cytoplasmic Ca2+ level)” value was “back to the basal level”.

Turning to `O=S(=O)(c1cccc2c(I)cccc12)N1CCCNCC1` [ML-7], the “epithelial exfoliation of human endocervical tissue explants” value in assay [2] is “decreased the epithelial exfoliation of human endocervical tissue explants to the basal level”. Also, in assay [1], the “transmigration of MS11ΔOpa across the polarized T84 monolayer” value is on record as “significantly reduced the transmigration”, the “Ng adherence to polarized T84 cells” value is listed as “none of these inhibitors had any significant effect” and the “Ng invasion into polarized T84 cells (gentamicin resistance)” value is reported as “none of these inhibitors had any significant effect”. In assay [3], the “pMLC accumulation at Ng adherent sites” value was “significantly reduced”. Also, the “apical:lateral FIR of pMLC” value in assay [3] (ML-7 10 μM, PIK 100 μM) is recorded as “significantly reduced”.
